Values of other authors as cited in patent US9149493B2, “Compositions for bowel cleansing and use thereof” (ALFA WASSERMANN SPA, priority 2011, dated 2015).

Settings: administered alone; eliminated unchanged in urine

**Q.** For “citric acid and sodium citrate [citrates]”, which “absorption of citrates in the small intestine” value is on record?
**A.** almost entirely absorbed
